Test results from ChEMBL document CHEMBL6182949 (J Med Chem, 2025).
Activity calls are given as the source filed them. The rule behind the calls is not given here.

Legend:
[1] = target: T1, Protein cereblon/Interleukin-1 receptor-associated kinase 4 (Homo sapiens, UniProt Q9NWZ3+Q96SW2); assay: PROTAC activity at CRBN/IRAK4 in human THP-1 cells assessed as induction of IRAK4 degradation incubated for 24 hrs by HiBiT lytic reagent based analysis; assay type: cell-based
Target sequence in this assay (Q96SW2 whole entry, one chain of several): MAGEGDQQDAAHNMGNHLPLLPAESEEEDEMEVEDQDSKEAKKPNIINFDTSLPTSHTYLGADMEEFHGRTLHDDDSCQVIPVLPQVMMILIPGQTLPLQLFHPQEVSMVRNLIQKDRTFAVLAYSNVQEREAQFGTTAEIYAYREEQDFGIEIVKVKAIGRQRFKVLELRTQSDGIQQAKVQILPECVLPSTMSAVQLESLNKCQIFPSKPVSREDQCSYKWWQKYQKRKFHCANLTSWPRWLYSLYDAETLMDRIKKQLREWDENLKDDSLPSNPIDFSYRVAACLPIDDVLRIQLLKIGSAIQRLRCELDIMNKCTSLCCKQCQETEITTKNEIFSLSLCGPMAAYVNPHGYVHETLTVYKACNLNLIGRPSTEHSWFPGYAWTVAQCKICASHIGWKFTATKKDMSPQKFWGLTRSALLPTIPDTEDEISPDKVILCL

[2] = target: T1, Protein cereblon/Interleukin-1 receptor-associated kinase 4; assay: PROTAC activity at CRBN/IRAK4 in human THP-1 cells assessed as induction of IRAK4 degradation incubated for 24 hrs by HiBiT lytic reagent based analysis relative to control; assay type: cell-based
Target sequence in this assay (Q96SW2 whole entry, looked up, one chain of several): as the sequence (Q96SW2 whole entry, one chain of several) above

[3] = Metabolic stability in human liver microsome assessed as half life at 1 uM measured up to 60 mins in presence of NADPH by LC-MS/MS analysis; assay type: ADME; conditions: liver microsomes
[4] = Metabolic stability in cynomolgus monkey liver microsome assessed as half life at 1 uM measured up to 60 mins in presence of NADPH by LC-MS/MS analysis; assay type: ADME, Macaca fascicularis; conditions: liver microsomes
[5] = Metabolic stability in dog liver microsome assessed as half life at 1 uM measured up to 60 mins in presence of NADPH by LC-MS/MS analysis; assay type: ADME, Canis lupus familiaris; conditions: liver microsomes
[6] = Metabolic stability in rat liver microsome assessed as half life at 1 uM measured up to 60 mins in presence of NADPH by LC-MS/MS analysis; assay type: ADME; conditions: liver microsomes
[7] = Metabolic stability in mouse liver microsome assessed as half life at 1 uM measured up to 60 mins in presence of NADPH by LC-MS/MS analysis; assay type: ADME; conditions: liver microsomes
hERG (KCNH2) [8] = target: T2, hERG (KCNH2) (Homo sapiens, UniProt Q12809); assay: Inhibition of hERG expressed in HEK293 cells at 1 uM by manual patch clamp assay relative to control; assay type: toxicity, cell-based; conditions: HEK293 cells expressing hERG
[9] = Cmax in male C57BL/6 mouse at 2 mg/kg, iv measured up to 24 hrs by LC-MS/MS analysis; assay type: ADME, organism-based; conditions: in vivo
[10] = AUClast in male C57BL/6 mouse at 2 mg/kg, iv measured up to 24 hrs by LC-MS/MS analysis; assay type: ADME, organism-based; conditions: in vivo
[11] = Half life in male C57BL/6 mouse at 2 mg/kg, iv measured up to 24 hrs by LC-MS/MS analysis; assay type: ADME, organism-based; conditions: in vivo
[12] = Clearance in male C57BL/6 mouse at 2 mg/kg, iv measured up to 24 hrs by LC-MS/MS analysis; assay type: ADME, organism-based; conditions: in vivo
[13] = Volume of distribution at steady state in male C57BL/6 mouse at 2 mg/kg, iv measured up to 24 hrs by LC-MS/MS analysis; assay type: ADME, organism-based; conditions: in vivo, read-out: Vdss
[14] = Tmax in male C57BL/6 mouse at 10 mg/kg, po measured up to 24 hrs by LC-MS/MS analysis; assay type: ADME, organism-based; conditions: in vivo
[15] = Cmax in male C57BL/6 mouse at 10 mg/kg, po measured up to 24 hrs by LC-MS/MS analysis; assay type: ADME, organism-based; conditions: in vivo
[16] = AUClast in male C57BL/6 mouse at 10 mg/kg, po measured up to 24 hrs by LC-MS/MS analysis; assay type: ADME, organism-based; conditions: in vivo
[17] = Half life in male C57BL/6 mouse at 10 mg/kg, po measured up to 24 hrs by LC-MS/MS analysis; assay type: ADME, organism-based; conditions: in vivo
[18] = Oral bioavailability in male C57BL/6 mouse at 10 mg/kg measured up to 24 hrs by LC-MS/MS analysis; assay type: ADME, organism-based; conditions: in vivo
[19] = Cmax in Sprague-Dawley rat at 2 mg/kg, iv measured up to 24 hrs by LC-MS/MS analysis; assay type: ADME, organism-based; conditions: in vivo
[20] = AUClast in Sprague-Dawley rat at 2 mg/kg, iv measured up to 24 hrs by LC-MS/MS analysis; assay type: ADME, organism-based; conditions: in vivo
[21] = Half life in Sprague-Dawley rat at 2 mg/kg, iv measured up to 24 hrs by LC-MS/MS analysis; assay type: ADME, organism-based; conditions: in vivo
[22] = Clearance in Sprague-Dawley rat at 2 mg/kg, iv measured up to 24 hrs by LC-MS/MS analysis; assay type: ADME, organism-based; conditions: in vivo
[23] = Volume of distribution at steady state in Sprague-Dawley rat at 2 mg/kg, iv measured up to 24 hrs by LC-MS/MS analysis; assay type: ADME, organism-based; conditions: in vivo, read-out: Vdss
[24] = Tmax in Sprague-Dawley rat at 10 mg/kg, po measured up to 24 hrs by LC-MS/MS analysis; assay type: ADME, organism-based; conditions: in vivo
[25] = Cmax in Sprague-Dawley rat at 10 mg/kg, po measured up to 24 hrs by LC-MS/MS analysis; assay type: ADME, organism-based; conditions: in vivo
[26] = AUClast in Sprague-Dawley rat at 10 mg/kg, po measured up to 24 hrs by LC-MS/MS analysis; assay type: ADME, organism-based; conditions: in vivo
[27] = Half life in Sprague-Dawley rat at 10 mg/kg, po measured up to 24 hrs by LC-MS/MS analysis; assay type: ADME, organism-based; conditions: in vivo
[28] = Oral bioavailability in Sprague-Dawley rat at 10 mg/kg measured up to 24 hrs by LC-MS/MS analysis; assay type: ADME, organism-based; conditions: in vivo
Mus musculus [29] = assay: Anti-arthritic activity against collagen-induced arthritis DBA/1 mouse model assessed as reduction in pathological score at 30 mg/kg, po administered for 14 days; assay type: functional, organism-based; conditions: time 14.0 day
[30] = target: T1, Protein cereblon/Interleukin-1 receptor-associated kinase 4; assay: PROTAC activity at CRBN/IRAK4 in human PBMC cells assessed as induction of IRAK4 degradation incubated for 24 hrs by HiBiT lytic reagent based analysis relative to control; assay type: cell-based
Target sequence in this assay (Q96SW2 whole entry, looked up, one chain of several): as the sequence (Q96SW2 whole entry, one chain of several) above

[31] = Inhibition of LPS-stimulated IL-6 release in human PBMC cells; assay type: functional, cell-based
Mus musculus [32] = assay: Anti-psoriasis effect in IMQ-induced C57BL/6 mouse assessed as reduction in cumulative score at 30 mg/kg administered topically twice daily for 6 days and measured after 24 hrs; assay type: functional, organism-based; conditions: time 7.0 day
Mus musculus [33] = assay: Anti-psoriasis effect in IMQ-induced C57BL/6 mouse assessed as reduction in cumulative score at 100 mg/kg administered topically twice daily for 6 days and measured after 24 hrs; assay type: functional, organism-based; conditions: time 7.0 day
Mus musculus [34] = assay: Anti-psoriasis effect in IMQ-induced C57BL/6 mouse assessed as reduction in delta ear thickness at 30 mg/kg administered topically twice daily for 6 days and measured after 24 hrs; assay type: functional, organism-based; conditions: time 7.0 day
Mus musculus [35] = assay: Anti-psoriasis effect in IMQ-induced C57BL/6 mouse assessed as reduction in delta ear thickness at 100 mg/kg administered topically twice daily for 6 days and measured after 24 hrs; assay type: functional, organism-based; conditions: time 7.0 day
hERG = hERG (Homo sapiens, UniProt Q12809); assay: Inhibition of hERG expressed in HEK293 cells at 10 uM by manual patch clamp assay relative to control; assay type: toxicity, cell-based; conditions: HEK293 cells expressing hERG
[36] = target: T3, Interleukin-1 receptor-associated kinase 4 (Homo sapiens, UniProt Q9NWZ3); assay: Inhibition of IRAK4 (unknown origin)
T3 sequence (Q9NWZ3 whole entry): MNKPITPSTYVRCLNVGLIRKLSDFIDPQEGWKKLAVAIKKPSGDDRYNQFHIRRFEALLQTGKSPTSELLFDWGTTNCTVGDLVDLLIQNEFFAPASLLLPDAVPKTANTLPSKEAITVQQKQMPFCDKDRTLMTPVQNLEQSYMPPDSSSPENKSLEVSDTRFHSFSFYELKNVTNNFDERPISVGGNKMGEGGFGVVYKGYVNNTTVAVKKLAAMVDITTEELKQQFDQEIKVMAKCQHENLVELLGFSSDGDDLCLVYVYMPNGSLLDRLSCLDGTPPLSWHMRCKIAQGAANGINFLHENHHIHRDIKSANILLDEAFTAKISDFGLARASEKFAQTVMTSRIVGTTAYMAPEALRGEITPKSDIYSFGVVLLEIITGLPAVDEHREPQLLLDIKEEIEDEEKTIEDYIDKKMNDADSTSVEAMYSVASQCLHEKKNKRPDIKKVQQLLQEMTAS

hERG (KCNH2) [37] = target: T2, hERG (KCNH2); assay: Inhibition of hERG expressed in HEK293 cells at 3 uM by manual patch clamp assay relative to control; assay type: toxicity, cell-based; conditions: HEK293 cells expressing hERG

T2 sequence (Q12809 whole entry): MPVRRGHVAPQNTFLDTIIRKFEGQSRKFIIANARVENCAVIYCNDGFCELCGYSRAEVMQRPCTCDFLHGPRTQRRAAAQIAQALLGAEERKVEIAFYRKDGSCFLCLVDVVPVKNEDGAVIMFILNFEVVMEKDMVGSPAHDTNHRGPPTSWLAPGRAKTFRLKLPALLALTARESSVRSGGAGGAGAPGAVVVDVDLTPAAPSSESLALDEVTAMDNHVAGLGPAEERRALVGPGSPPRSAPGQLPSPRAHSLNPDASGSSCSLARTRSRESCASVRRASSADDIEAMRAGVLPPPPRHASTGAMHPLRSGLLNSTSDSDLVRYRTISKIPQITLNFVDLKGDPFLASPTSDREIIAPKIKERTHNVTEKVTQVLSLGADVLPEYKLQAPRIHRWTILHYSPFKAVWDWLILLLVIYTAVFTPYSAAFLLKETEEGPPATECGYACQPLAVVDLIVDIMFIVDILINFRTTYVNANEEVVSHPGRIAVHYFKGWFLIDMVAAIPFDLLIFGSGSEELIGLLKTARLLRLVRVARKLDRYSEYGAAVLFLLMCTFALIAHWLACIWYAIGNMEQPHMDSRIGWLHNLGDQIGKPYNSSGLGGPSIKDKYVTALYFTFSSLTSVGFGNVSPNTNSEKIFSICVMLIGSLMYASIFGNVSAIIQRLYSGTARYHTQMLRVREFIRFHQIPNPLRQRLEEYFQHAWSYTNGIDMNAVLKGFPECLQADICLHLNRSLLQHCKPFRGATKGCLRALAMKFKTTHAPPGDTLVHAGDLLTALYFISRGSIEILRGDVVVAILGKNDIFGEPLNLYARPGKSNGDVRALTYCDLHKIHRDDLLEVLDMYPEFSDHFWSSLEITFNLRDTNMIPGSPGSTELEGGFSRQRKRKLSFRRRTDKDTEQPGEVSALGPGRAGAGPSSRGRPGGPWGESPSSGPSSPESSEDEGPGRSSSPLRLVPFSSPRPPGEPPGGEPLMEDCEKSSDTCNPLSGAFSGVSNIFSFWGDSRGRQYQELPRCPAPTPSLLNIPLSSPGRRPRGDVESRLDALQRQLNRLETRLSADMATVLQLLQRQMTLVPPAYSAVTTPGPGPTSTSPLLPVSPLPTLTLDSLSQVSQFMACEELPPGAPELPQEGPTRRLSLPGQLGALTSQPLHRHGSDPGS
hERG, sequence (Q12809 whole entry): as above

DC50 [1]	Emax [2]	half-life at 1 µM [3]	half-life at 1 µM [5]	half-life at 1 µM [7]	Structure (SMILES)	half-life at 1 µM [4]	half-life at 1 µM [6]	Cmax [9]	AUC(0-t) at 24 h [10]	half-life [11]	clearance [12]	Vd [13]	Tmax [14]	Cmax [15]	AUC(0-t) at 24 h [16]	half-life [17]	bioavailability [18]	Cmax [19]	AUClast [20]	half-life [21]	also measured
12 nM	38%	> 3.07 h	> 3.07 h	> 3.07 h	Cn1c(=O)n(C2CCC(=O)NC2=O)c2cccc(C#CCO[C@H]3CC[C@H](CN4CCC5(CC4)Cc4cc(NC(=O)c6cnn7cccnc67)c(N6CCC(C(=O)O)CC6)cc4O5)CC3)c21 (stereo not given in full)																inhibition at 10 µM (hERG): 43%
1.37 nM	87%	> 3.07 h	> 3.07 h	> 3.07 h	Cn1c(=O)n(C2CCC(=O)NC2=O)c2cccc(C#CCO[C@H]3CC[C@H](CN4CCC5(CC4)Cc4cc(NC(=O)c6cnn7cccnc67)c(N6CCC(O)CC6)cc4O5)CC3)c21 (stereo not given in full)	1.07 h	> 3.07 h	2780 ng/mL	14100 ng·h/mL	2.76 h	2.44 mL/min/kg	0.6 L/kg	4 h	3490 ng/mL	42100 ng·h/mL	3.82 h	59%	696 ng/mL	1436 ng·h/mL	2.42 h	inhibition at 3 µM (hERG (KCNH2) [37]): 35%; clearance [22]: 21.4 mL/min/kg; Vd [23]: 3.69 L/kg; Tmax [24]: 8 h; Cmax [25]: 352 ng/mL; AUClast [26]: 3395 ng·h/mL; half-life [27]: 3.16 h; F [28]: 15%

Second part, the compound before the results:

Structure (SMILES)	DC50 [1]	Emax [2]	half-life at 1 µM [3]	half-life at 1 µM [5]	half-life at 1 µM [7]	half-life at 1 µM [4]	half-life at 1 µM [6]	Cmax [9]	AUC(0-t) at 24 h [10]	half-life [11]	clearance [12]	Vd [13]	Tmax [14]	Cmax [15]	AUC(0-t) at 24 h [16]	half-life [17]	bioavailability [18]	Cmax [19]	AUClast [20]	half-life [21]	also measured
Cn1c(=O)n(C2CCC(=O)NC2=O)c2cccc(C#CCO[C@H]3CC[C@H](CN4CCC5(CC4)Cc4cc(NC(=O)c6cnn7cccnc67)c(N6CCC(CO)CC6)cc4O5)CC3)c21 (stereo not given in full)	2.65 nM	90%	> 3.07 h	> 3.07 h	> 3.07 h	2.33 h	> 3.07 h	2000 ng/mL	7160 ng·h/mL	2.69 h	4.67 mL/min/kg	0.94 L/kg	2 h	1540 ng/mL	14800 ng·h/mL	3.7 h	42%	1030 ng/mL	2193 ng·h/mL	3.94 h	inhibition at 1 µM (hERG (KCNH2) [8]): 28%; clearance [22]: 15.1 mL/min/kg; Vd [23]: 3.26 L/kg; Tmax [24]: 6 h; Cmax [25]: 261 ng/mL; AUClast [26]: 3524 ng·h/mL; half-life [27]: 3.58 h; F [28]: 11%
C[C@@H]1CCN(C(=O)CC#N)C[C@@H]1N(C)c1ncnc2[nH]ccc12																					Activity (Mus musculus [29]): Active
Cn1c(=O)n(C2CCC(=O)NC2=O)c2cccc(C#CCOC3CCN(C[C@H]4CC[C@H](n5cc(NC(=O)c6cnn7ccc(N8C[C@H]9C[C@@H]8CO9)nc67)c(C(F)F)n5)CC4)CC3)c21 (stereo not given in full) [KT-474]																					Emax [30]: 82%; IC50 [31]: 29.1 nM; Activity (Mus musculus [32]): inactive; Activity (Mus musculus [33]): inactive; Activity (Mus musculus [34]): inactive; Activity (Mus musculus [35]): inactive
CN1CCC2(CC1)Cc1cc(NC(=O)c3cnn4cccnc34)c(N3CCC(CO)CC3)cc1O2																					IC50 [36]: 0.91 nM
